Experimental data as given in patent US6524625B2, “Physiologically active extract obtained from indigo plant polygonum tinctorium” (Kabushiki Kaisha Hayashibara Seibutsu Kagaku Kenkyuto, priority 1998, dated 2003).
Converted amounts (≈) assume the structure as drawn. Where two headings read alike, the source gives them in different places.

Columns and labels:
[1] = tested on: Bacillus cereus (IFO 3466); experiment: Antiseptic action: MIC, agar plate dilution method; type: cell-based; conditions: IFO3466; Bacillus cereus (IFO 3466); read-out: Minimum inhibitory concentration
[2] = tested on: Helicobacter pylori (NCTC 11638); experiment: Antiseptic action: MIC, agar plate dilution method; type: cell-based; conditions: for MIC: NCTC11638, Helicobacter pylori (NCTC 11638), Brucella broth agar with horse blood, read-out: Minimum inhibitory concentration; for Inhibition of the growth of Helicobacter pylori (in words): comment on Table 8
[3] = tested on: vesicular stomatitis virus (VSV); experiment: microbe, parasite or virus in culture; type: cell-based; conditions: L929, 24 h, read-out: 50% Growth inhibitory concentration
[4] = tested on: Staphylococcus aureus (ATCC 6538P); experiment: Antiseptic action: MIC, agar plate dilution method; type: cell-based; conditions: ATCC6538P; Staphylococcus aureus (ATCC 6538P); read-out: Minimum inhibitory concentration
HGC-27 cells = experiment: Antitumor action: growth inhibition, methylene blue staining; type: cell-based; conditions: Homo sapiens; HGC-27 cells, 48 hours; read-out: 50% growth inhibitory concentration
Procedure: (§1) Solutions in each well were serially diluted with a fresh preparation of the same RPMI1640 medium (pH 7.2) as used in the above. […] Each cell suspension was distributed to a microplate in a volume of 50 μl/well and incubated at 37° C. for 48 hours in a 5 v/v % CO2 incubator. To each microplate, a 25 v/v % aqueous glutaraldehyde solution was added in a volume of 20 μl/well, and the microplate was allowed to stand for 15 min to fix the cells. Then, the cells adhered to the wells were washed with water, admixed with a 0.05 w/v % aqueous methylene blue solution in a volume of 100 μl/well, and further allowed to stand for 15 min to stain the cells. Thereafter, an excessive amount of the staining solution was removed from the wells by washing with water, and the cells were dried, admixed with 300 μl/well of 0.33 N hydrochloric acid, stirred sufficiently, and measured for absorption at a wavelength of 620 nm. In parallel, as a control, a system free of a test sample was provided and treated similarly as in the test samples. […]

HLC-1 cells = experiment: as above; type: cell-based; conditions: Homo sapiens; HLC-1 cells, 48 hours; read-out: 50% growth inhibitory concentration
Procedure: as §1

HL-60 cells = experiment: as above; type: cell-based; conditions: Homo sapiens; HL-60 cells, 48 hours; read-out: 50% growth inhibitory concentration
Procedure: as §1

[5] = tested on: Pseudomonas aeruginosa (IFO 3453); experiment: Antiseptic action: MIC, agar plate dilution method; type: cell-based; conditions: IFO3453; Pseudomonas aeruginosa (IFO 3453); read-out: Minimum inhibitory concentration
[6] = Radical-entrapping action, nitro blue tetrazolium (NBT) method; type: biochemical; conditions: for Radical-entrapping action: one unit = 50% inhibition of formazan formation, xanthin oxidase/xanthin/NBT; for Radical-entrapping action (in words): comment on Table 11
Procedure: Then the formed formazan was quantified on spectro-chemical analysis. Either of the present physiologically active extracts was dissolved in a refined water to give an appropriate concentration, and the solutions were used for test samples. As a control it was provided by replacing the test samples with a refined water. The 50% inhibitory activity for the formation of formazan in the control was defined as a one unit activity of radical-entrapping action. Based of the definition, the radical-entrapping activity of one gram of each test sample was determined.

HBL-38 cells = conditions: for Relative value of 3H-thymidine uptake: HBL-38 cells, relative to positive control = 100
Procedure: (§2) […] of either of the above dilutes of Compound 7, 150 μl of the above cell suspension of HBL-38 cells treated with disperse, and 50 μl of a serum-free medium containing 5 μg/ml of lipopolysaccharide (LPS) were added to each well in a microplate, and the cells were incubated at 37° C. for 24 hours in a 5 v/v % CO2 incubator and used for test group. In parallel, as a negative control, a system with a serum-free medium in place of the serum-free medium containing LPS in the test group, and, as a positive group, a system with a serum medium in place of the dilute of Compound 7 in the test group were provided and treated similarly as in test group. After 24-hour incubation, 50 μl aliquots of supernatants from each well were collected. The collected supernatants were respectively subjected to conventional enzyme immunoassay using Gg23-901-530, obtained from National Institute of Health, Bethesda, Md., USA, as a standard for human interferon-γ, and quantified for interferon-γ production in each system. The cells in each well, from which the supernatants were removed, were mixed with 50 μl aliquots of a ^3H-thymidine solution with a radiation intensity of 5 μCi/ml in serum medium, and incubated at 37° C. for eight hours in a 5 v/v % CO2 incubator. Thereafter, the cells in each well in the microplate were collected with a glass filter, measured for radiation intensity by “DIRECT β-COUNTER MATRIX 96”, a β-ray detector commercialized by Packard Instrument Co., Conn., USA, and examined for ^3H-thymidine uptake by the cells in each well. […] In Table 13 the level of ^3H-thymidine uptake is expressed with a relative value (%) to the positive control.

interferon-γ production = conditions: HBL-38 cells + LPS; for Interferon-γ production level: 24 hours, positive control 5.468, negative control 1.367
Procedure: HBL-38 cells as an immunocompetent cell were cultured until proliferated to a prescribed cell density. After culturing, the proliferated HBL-38 cells were washed three times with RPMI1640 medium (pH 7.2) (hereinafter designated as “serum-free medium” in Experiment 15) by centrifugation, and adjusted to give a cell density of 1×10^8 cells/ml using the serum-free medium. To one milliliter of the cell suspension were added 4.5 ml of the serum-free medium and 0.5 ml of a disperse solution prepared by dissolving dispase, commercialized by Godo Shusei, Co., Ltd., Tokyo, Japan, in physiological saline to give a concentration of 10,000 units/ml, and the mixture was incubated at 37° C. for 90 min under shaking conditions. Thereafter, HBL-38 cells were washed three times with the serum medium by centrifugation and mixed with the serum medium into a cell suspension with a cell density of 1×10^6 cells/ml.
as §2

`O=c1c(O)c(-c2ccc(O)cc2)oc2cc3c(c(O)c12)OCO3` [Compound 2, 3,5, 4′-trihydroxy-6,7-methylenedioxy-flavone] showed an MIC [1] of 313 µg/mL (≈ 996 µM), an MIC [2] of 156 µg/mL (≈ 496 µM) and an IC50 [3] of 14 µg/mL (≈ 44.6 µM). For the same compound, the MIC [4] was 313 µg/mL (≈ 996 µM), the IC50 (HGC-27 cells) was 37.1 µg/mL (≈ 118 µM) and the IC50 (HLC-1 cells) was 40.4 µg/mL (≈ 129 µM). For the same compound, the IC50 (HL-60 cells) was 244 µg/mL (≈ 775 µM), the MIC [5] was 313 µg/mL (≈ 996 µM) and the Radical-entrapping action [6] was 1,830 unit/g.

For `O=c1c(O)c(-c2ccc(O)cc2)oc2cc(O)cc(O)c12` [Compound 3, kaempferol], the MIC [2] was 39 µg/mL (≈ 136 µM), the “Inhibition of the growth of Helicobacter pylori (in words)” value [2] was “strongly inhibited the growth” and the Radical-entrapping action [6] was 14,000 unit/g.

With `O=C(O)c1cc(O)c(O)c(O)c1` [Compound 5, gallic acid] the “Radical-entrapping action (in words)” value [6] was “remarkable” and the Radical-entrapping action [6] was 692,000 unit/g.

In the case of `O=C1Nc2ccccc2/C1=C1/Nc2ccccc2C1=O` [Compound 7, 3-(1,3-dihydro-3-oxo-2H-indol-2-ylidene)-1,3-dihydro-2H-indol-2-one], the “Relative value of 3H-thymidine uptake” value (HBL-38 cells; 0.07 ng/ml) is reported as 98.0%, the “Relative value of 3H-thymidine uptake” value (HBL-38 cells; 0.15 ng/ml) is reported as 98.3% and the “Relative value of 3H-thymidine uptake” value (HBL-38 cells; 0.31 ng/ml) is reported as 99.7%. The “Relative value of 3H-thymidine uptake” value (HBL-38 cells; 0.62 ng/ml) was 96.4%, the “Relative value of 3H-thymidine uptake” value (HBL-38 cells; 1.25 ng/ml) was 99.6% and the “Relative value of 3H-thymidine uptake” value (HBL-38 cells; 2.5 ng/ml) was 105.7%. The “Relative value of 3H-thymidine uptake” value (HBL-38 cells; 5.0 ng/ml) was 101.1%, the “Relative value of 3H-thymidine uptake” value (HBL-38 cells; 10.0 ng/ml) was 99.4% and the “Level of 3H-thymidine uptake by HBL-38 cells, control vs test groups (in words)” value (HBL-38 cells; 0.07-10.0 ng/ml) was “no significant difference”. For the same compound, the Interferon-γ production level (interferon-γ production; 0.07 ng/ml) was 2.753 IU/ml, the Interferon-γ production level (interferon-γ production; 0.15 ng/ml) was 2.195 IU/ml and the Interferon-γ production level (interferon-γ production; 0.31 ng/ml) was 1.979 IU/ml. It also gave an Interferon-γ production level (interferon-γ production; 0.62 ng/ml) of 1.958 IU/ml, an Interferon-γ production level (interferon-γ production; 1.25 ng/ml) of 1.288 IU/ml and an Interferon-γ production level (interferon-γ production; 2.5 ng/ml) of 1.342 IU/ml. The Interferon-γ production level (interferon-γ production; 5.0 ng/ml) was 0.932 IU/ml, the Interferon-γ production level (interferon-γ production; 10.0 ng/ml) was 0.965 IU/ml and the “Concentration at which interferon-γ production was inhibited to the same or lower level as the negative control free of LPS” value (interferon-γ production) was “at least 1.25 ng/ml”. For the same compound, the “Inhibition of interferon-γ production (in words)” value (interferon-γ production) was “inhibited the interferon-γ production dose-dependently”.

With `O=C(O)/C=C/c1ccc(O)c(O)c1` [Compound 6, caffeic acid] the “Radical-entrapping action (in words)” value [6] was “remarkable” and the Radical-entrapping action [6] was 418,000 unit/g.

In the case of `COc1c(O)cc2oc(-c3ccc(O)cc3)c(O)c(=O)c2c1O` [Compound 4, 3,5,7,4′-tetrahydroxy-6-methoxy-flavone], the MIC [2] is reported as 39 µg/mL (≈ 123 µM), the “Inhibition of the growth of Helicobacter pylori (in words)” value [2] is reported as “strongly inhibited the growth” and the Radical-entrapping action [6] is reported as 4,010 unit/g.
